Source: patent US11739069B2, “Modulators of resistant androgen receptor” (priority 2012, dated 2023)
Where a chain is given by its changes, count along the chain named. Entries after “also recorded” stand apart in the source; their conditions may differ.

Experiments:
[1] = tested on: VCaP cells expressing mutant F876L androgen receptor; assay: In vitro cell viability assay, VCaP cells expressing mutant F876L AR (FIG. 17); assay type: cell-based
[2] = tested on: CWR22PC cells expressing wild type androgen receptor; assay: In vitro cell viability assay (CellTiterGLO), CWR22PC cells expressing wild-type AR (FIG. 18); assay type: cell-based; details: 10 uM, days 1, 4, 7
Method: (§1) Compounds of the present invention were also assayed in an in vitro cell viability assay in CWR22PC cancer cells. A representative procedure follows. CWR22PC cells ectopically expressing wild-type AR or AR F876L, cultured in full-serum containing media, were treated with vehicle (DMSO) or 10 uM of enzalutamide or compound I-1. CellTiterGLO assay was performed on days 1, 4, and 7 to determine cell viability. Results of a cell viability assay in CWR22PC cells are depicted in FIG. 18. On the y-axis RLU means relative light units. More light […] means more viable cells. In some embodiments, a provided compound is considered to be a modulator of a tested AR if it results in similar effects on cell viability as compared with a reference androgen or anti-androgen.

AR = molecular target: T1, AR (Homo sapiens, UniProt P10275, DEL79-80/DUP473-473); assay: AR luciferase reporter assay, competition with DHT (FIG. 25); assay type: cell-based
T1 construct: expressed in transfected cells; host or cells: CV1 cells
T1 sequence (P10275 with tags, fused parts or gaps DEL79-80/DUP473-473): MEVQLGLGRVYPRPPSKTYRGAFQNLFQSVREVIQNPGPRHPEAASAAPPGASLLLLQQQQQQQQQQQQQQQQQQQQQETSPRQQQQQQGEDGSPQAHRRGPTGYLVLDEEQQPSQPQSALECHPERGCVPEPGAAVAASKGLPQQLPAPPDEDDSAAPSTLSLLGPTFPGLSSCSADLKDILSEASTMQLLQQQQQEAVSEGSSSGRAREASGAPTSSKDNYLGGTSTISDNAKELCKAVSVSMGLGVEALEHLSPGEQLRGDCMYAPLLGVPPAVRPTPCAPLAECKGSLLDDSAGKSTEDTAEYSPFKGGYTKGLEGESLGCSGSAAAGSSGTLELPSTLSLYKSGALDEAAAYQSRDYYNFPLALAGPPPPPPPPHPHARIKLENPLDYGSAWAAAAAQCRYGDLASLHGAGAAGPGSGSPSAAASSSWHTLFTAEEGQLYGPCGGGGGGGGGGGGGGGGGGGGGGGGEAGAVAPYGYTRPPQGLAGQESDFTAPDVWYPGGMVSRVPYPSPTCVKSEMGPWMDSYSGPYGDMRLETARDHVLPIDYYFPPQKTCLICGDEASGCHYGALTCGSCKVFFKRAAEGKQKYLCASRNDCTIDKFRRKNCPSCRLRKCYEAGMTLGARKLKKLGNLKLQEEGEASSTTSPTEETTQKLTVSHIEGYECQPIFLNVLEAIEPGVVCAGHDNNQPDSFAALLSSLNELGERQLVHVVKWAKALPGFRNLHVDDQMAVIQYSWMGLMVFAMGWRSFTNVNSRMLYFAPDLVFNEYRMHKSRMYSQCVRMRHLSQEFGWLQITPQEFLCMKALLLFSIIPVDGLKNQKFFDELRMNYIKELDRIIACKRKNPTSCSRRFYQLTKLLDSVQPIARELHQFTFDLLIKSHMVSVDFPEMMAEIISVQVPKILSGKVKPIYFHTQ
Method: (§2) Compounds of the present invention were assayed in an in vitro AR luciferase reporter assay reporter assay, which can be used to determine the effect of compounds on AR transcriptional activity. CV1 cells were engineered to express an AR-regulated luciferase reporter, such that luciferase expression indicates AR transcriptional activity. A representative procedure for this assay follows.
(§3) CV1 cells (10^6 cells/10 cm plate) were cotransfected with 50 ng of SV40 Renilla Luciferase, 5 ug of ARE(4X)-Luciferase, and […] of one pWZL-AR expression construct using Lipofectamine 2000 (Invitrogen). Transfection media was removed 4-6 hours later and replaced with phenol red free DME-HG containing 10% charcoal stripped serum. The following day each plate was split into 24- or 48-well plates, in 10% CSS media, containing the indicated drugs in triplicate. Twenty-four to forty-eight hours later, luciferase activity was assayed using Dual-Luciferase Reporter Assay System (Promega) on a 96-well luminometer (Turner Biosystems). In some embodiments, a provided compound is considered to be a modulator of a tested AR if it results in similar effects on induced expression of luciferase in the luciferase reporter assay as compared with a reference androgen or anti-androgen.

AR F876L [3] = molecular target: T2, AR F876L (Homo sapiens, UniProt P10275, DEL79-80/DUP473-473/F877L); assay: AR luciferase reporter assay, AR F876L versus AR WT (FIG. 26); assay type: cell-based
T2 construct: expressed in transfected cells
T2 sequence (P10275 with tags, fused parts or gaps DEL79-80/DUP473-473/F877L): T1 sequence (P10275 with tags, fused parts or gaps DEL79-80/DUP473-473) with F876L
Method: as §2, §3

[4] = tested on: VCaP cells expressing wild type androgen receptor; assay: In vitro cell viability assay, VCaP cells expressing wild type AR (FIG. 17); assay type: cell-based
[5] = tested on: CWR22PC cells expressing mutant F876L androgen receptor; assay: In vitro cell viability assay (CellTiterGLO), CWR22PC cells expressing AR F876L (FIG. 18); assay type: cell-based; details: 10 uM, days 1, 4, 7
Method: as §1

AR WT [6] = assay: AR signaling and PARP cleavage in cells expressing AR WT (FIG. 27); assay type: cell-based
AR F876L [7] = molecular target: T2, AR F876L; assay: AR signaling and PARP cleavage in cells expressing AR F876L (FIG. 27); assay type: cell-based
AR WT [8] = details: LNCaP cells ectopically expressing AR WT; compared with AR F876L cells
Method: The cells were propagated in RPMI media supplemented with 10% CSS (charcoal-stripped, dextran-treated fetal bovine serum). Cells were trypsinized, washed in PBS, and triplicate cell samples were mixed with 20,000 cpm 18F-FDHT and increasing amounts of cold competitor (0.1 nM to 10 uM). The solutions were shaken on an orbital shaker at ambient temperature, and after 1 hour the cells were isolated and washed with ice-cold Tris-buffered saline using a Brandel cell harvester (Gaithersburg, Md.). All the isolated cell samples were counted using a scintillation counter, with appropriate standards of total activity and blank controls, and the specific uptake of ^18F-FDHT determined.

mutant AR T877A [9] = molecular target: T3, mutant AR T877A (Homo sapiens, UniProt P10275, DEL79-80/DUP473-473/T878A); details: cited from earlier work
T3 sequence (P10275 with tags, fused parts or gaps DEL79-80/DUP473-473/T878A): T1 sequence (P10275 with tags, fused parts or gaps DEL79-80/DUP473-473) with T877A

mutant AR T877A [10] = molecular target: T3, mutant AR T877A; details: Ozers et al., Biochemistry (2007) 46, 683; cited from earlier work

CNC(=O)c1ccc(N2C(=S)N(c3ccc(C#N)c(C(F)(F)F)c3)C(=O)[C@@]23CCCC(C)(C)C3)cc1F (stereo in doubt) [Compound I-1, 4-(3-(4-cyano-3-(trifluoromethyl)phenyl)-7,7-dimethyl-4-oxo-2-thioxo-1,3-diazaspiro[4.5]decan-1-yl)-2-fluoro-N-methylbenzamide]
ability to kill or inhibit the growth of cells [1]: kill or inhibit the growth of VCaP cells
ability to kill or inhibit the growth of cells [2]: kill or inhibit the growth of CWR22PC cells
competition with dihydrotestosterone (DHT) for AR binding and induction of AR-regulated luciferase (AR): effectively competes with dihydrotestosterone (DHT)
potency as agonist for AR F876L compared with AR WT (AR F876L [3]): more potent agonist for AR F876L than AR WT
ability to kill or inhibit the growth of cells [4]: kill or inhibit the growth of VCaP cells
ability to kill or inhibit the growth of cells [5]: kill or inhibit the growth of CWR22PC cells
induction of PARP cleavage (AR WT [6]): induce PARP cleavage
inhibition of AR signaling (AR WT [6]): inhibit AR signaling
induction of PARP cleavage (AR F876L [7]): induce PARP cleavage
inhibition of AR signaling (AR F876L [7]): inhibit AR signaling

C[C@]12CCC(=O)C[C@@H]1CC[C@@H]1[C@@H]2CC[C@]2(C)[C@@H](O)CC[C@@H]12 [DHT, dihydrotestosterone]
IC50 for displacement of 18F-FDHT (AR WT [8]): comparable IC50

CC(C)(O)C(=O)Nc1ccc([N+](=O)[O-])c(C(F)(F)F)c1 [hydroxyflutamide]
agonist activity on mutant AR (mutant AR T877A [9]): act as AR agonists; also recorded: confers agonism
binding affinity to mutant AR T877A compared with AR WT (mutant AR T877A [10]): higher affinity
